Values joined by “and” are separate entries in the source; they are usually repeats but may differ in a detail not shown here. Equal entries are not always repeated. Inconclusive results and toxic doses are left out. Cut-off read from the data, not from the text of the source: active = T/C of 150% or more; inactive = T/C below 125%.
Tested on: L1210 leukemia ip in BDF1 mice, survival T/C
Assay: NCI In Vivo Anticancer Drug Screen. Data for tumor model L1210 Leukemia (intraperitoneal) in B6D2F1 (BDF1) mice
Conditions: endpoint: mean survival time, higher = longer survival
In short: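 Mice bearing the transplanted tumor received compound or vehicle. Survival of the treated group was divided by that of the vehicle-treated control group to give the ratio.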

[1] = dose: 100.0 mg/kg/injection, schedule: Q01DX001 (ip), vehicle: other
[2] = dose: 100.0 mg/kg/injection, schedule: Q01DX009 (ip), vehicle: saline with Tween-80
[3] = dose: 200.0 mg/kg/injection, schedule: Q01DX009 (ip), vehicle: saline with Tween-80
[4] = dose: 100.0 mg/kg/injection, schedule: Q04DX003 (ip), vehicle: acetone
[5] = dose: 200.0 mg/kg/injection, schedule: Q04DX003 (ip), vehicle: acetone
[6] = dose: 400.0 mg/kg/injection, schedule: Q04DX003 (ip), vehicle: acetone
[7] = dose: 100.0 mg/kg/injection, schedule: Q04DX003 (ip), vehicle: Klucel (hydroxypropylcellulose) (HPC)
[8] = dose: 200.0 mg/kg/injection, schedule: Q04DX003 (ip), vehicle: Klucel (hydroxypropylcellulose) (HPC)
[9] = dose: 400.0 mg/kg/injection, schedule: Q04DX003 (ip), vehicle: Klucel (hydroxypropylcellulose) (HPC)
[10] = dose: 100.0 mg/kg/injection, schedule: Q01DX009 (ip), vehicle: Klucel (hydroxypropylcellulose) (HPC)
[11] = dose: 200.0 mg/kg/injection, schedule: Q01DX009 (ip), vehicle: Klucel (hydroxypropylcellulose) (HPC)
[12] = dose: 400.0 mg/kg/injection, schedule: Q01DX009 (ip), vehicle: Klucel (hydroxypropylcellulose) (HPC)
[13] = dose: 100.0 mg/kg/injection, schedule: Q04DX003 (ip), vehicle: saline with Tween-80
[14] = dose: 100.0 mg/kg/injection, schedule: Q01DX001 (ip), vehicle: saline
[15] = dose: 200.0 mg/kg/injection, schedule: Q01DX001 (ip), vehicle: saline

Measured: T/C

CC(=O)Nn1cnc2c(SCc3ccccc3)ncnc21
inactive: [1] 96 % of control | dose: 177.0 mg/kg/injection, schedule: Q01DX001 (ip), vehicle: other 105 % of control | dose: 200.0 mg/kg/injection, schedule: Q01DX001 (ip), vehicle: other 100 % of control | dose: 266.0 mg/kg/injection, schedule: Q01DX001 (ip), vehicle: other 115 % of control

CC1CN=C(c2ccc(Br)cc2)O1 (centres undefined)
inactive: [2] 105 % of control | [3] 89 % of control

COc1ccc([N+](=O)[O-])c2c1CONC2(C)C(=O)O (centres undefined)
inactive: [4] 98 % of control | [5] 95 % of control | [6] 98 % of control

CCN(c1ccccc1)S(=O)(=O)C(C)S(=O)(=O)N(CC)c1ccccc1
inactive: dose: 100.0 mg/kg/injection, schedule: Q01DX001 (ip), vehicle: saline with Tween-80 97 % of control | dose: 200.0 mg/kg/injection, schedule: Q01DX001 (ip), vehicle: saline with Tween-80 94 % of control | dose: 400.0 mg/kg/injection, schedule: Q01DX001 (ip), vehicle: saline with Tween-80 103 % of control

O=C(O)/C=C/c1cc(O)c(O)c(O)c1
inactive: dose: 25.0 mg/kg/injection, schedule: Q01DX001 (ip), vehicle: other 100 % of control | dose: 50.0 mg/kg/injection, schedule: Q01DX001 (ip), vehicle: other 99 % of control | [1] 94 % of control

COc1cc(OC)c(NC(=O)c2ccc([N+](=O)[O-])s2)cc1Cl
inactive: dose: 50.0 mg/kg/injection, schedule: Q01DX005 (ip), vehicle: saline 94 % of control | dose: 100.0 mg/kg/injection, schedule: Q01DX005 (ip), vehicle: saline 94 % of control | dose: 200.0 mg/kg/injection, schedule: Q01DX005 (ip), vehicle: saline 94 % of control

NC(N)=N/N=C(\c1ccc(Br)cc1)C1CC1
inactive: dose: 15.0 mg/kg/injection, schedule: Q01DX Z (ip), vehicle: carboxymethylcellulose (CMC) 96 % of control | dose: 30.0 mg/kg/injection, schedule: Q01DX Z (ip), vehicle: carboxymethylcellulose (CMC) 95 % of control | dose: 30.0 mg/kg/injection, schedule: Q01DX Z (oral), vehicle: carboxymethylcellulose (CMC) 100 % of control | dose: 60.0 mg/kg/injection, schedule: Q01DX Z (ip), vehicle: carboxymethylcellulose (CMC) 96 % of control | dose: 60.0 mg/kg/injection, schedule: Q01DX Z (oral), vehicle: carboxymethylcellulose (CMC) 115 % of control | dose: 120.0 mg/kg/injection, schedule: Q01DX Z (oral), vehicle: carboxymethylcellulose (CMC) 107 % of control and 121 % of control | dose: 240.0 mg/kg/injection, schedule: Q01DX Z (oral), vehicle: carboxymethylcellulose (CMC) 102 % of control and 111 % of control

CN(CC(=O)O)C(=O)CN=Cc1ccccc1
inactive: dose: 100.0 mg/kg/injection, schedule: Q04DX003 (ip), vehicle: saline 96 % of control | dose: 200.0 mg/kg/injection, schedule: Q04DX003 (ip), vehicle: saline 97 % of control | dose: 400.0 mg/kg/injection, schedule: Q04DX003 (ip), vehicle: saline 97 % of control

CCCCCCCCCCCCCCCCS(=O)(=O)c1ccccc1NC(N)=O
inactive: [7] 97 % of control | [8] 98 % of control | [9] 95 % of control

Cc1ncnc2[nH]c(=S)[nH]c12
inactive: dose: 75.0 mg/kg/injection, schedule: Q01DX001 (ip), vehicle: saline 105 % of control | dose: 150.0 mg/kg/injection, schedule: Q01DX001 (ip), vehicle: saline 101 % of control | dose: 300.0 mg/kg/injection, schedule: Q01DX001 (ip), vehicle: saline 100 % of control

C/C(=N\Sc1ccccc1)c1ccccc1O
inactive: dose: 100.0 mg/kg/injection, schedule: Q04DX002 (ip), vehicle: other 102 % of control | dose: 200.0 mg/kg/injection, schedule: Q04DX002 (ip), vehicle: other 88 % of control

Cc1ccc(S(=O)(=O)NCCCOS(=O)(=O)c2ccc(C)cc2)cc1
inactive: [10] 104 % of control | [4] 97 % of control | [11] 93 % of control | [5] 95 % of control | [12] 93 % of control | [6] 94 % of control

O=[N+]([O-])c1ccc(N=Nc2ccccc2)cc1
inactive: [2] 109 % of control | [3] 104 % of control | dose: 400.0 mg/kg/injection, schedule: Q01DX009 (ip), vehicle: saline with Tween-80 105 % of control

O=C1CC(c2ccccc2)C1(c1ccccc1)c1ccccc1 (centres undefined)
inactive: [7] 98 % of control | [8] 101 % of control | [9] 96 % of control

CCC(O)(COC(N)=O)c1ccccc1 (centres undefined)
inactive: dose: 100.0 mg/kg/injection, schedule: Q01DX001 (ip), vehicle: carboxymethylcellulose (CMC) 97 % of control | dose: 200.0 mg/kg/injection, schedule: Q01DX001 (ip), vehicle: carboxymethylcellulose (CMC) 108 % of control | dose: 400.0 mg/kg/injection, schedule: Q01DX001 (ip), vehicle: carboxymethylcellulose (CMC) 94 % of control

CN(C)C(=O)Nc1cccc(OC(=O)NCCCl)c1
inactive: [13] 96 % of control | dose: 200.0 mg/kg/injection, schedule: Q04DX003 (ip), vehicle: saline with Tween-80 94 % of control | dose: 400.0 mg/kg/injection, schedule: Q04DX003 (ip), vehicle: saline with Tween-80 94 % of control

COC(=O)CCC1([N+](=O)[O-])CCCCC1
inactive: dose: 16.5 mg/kg/injection, schedule: Q01DX009 (ip), vehicle: saline with Tween-80 96 % of control | dose: 25.0 mg/kg/injection, schedule: Q01DX009 (ip), vehicle: saline with Tween-80 94 % of control | dose: 25.0 mg/kg/injection, schedule: Q04DX003 (ip), vehicle: saline with Tween-80 100 % of control | dose: 37.5 mg/kg/injection, schedule: Q01DX009 (ip), vehicle: saline with Tween-80 99 % of control | dose: 50.0 mg/kg/injection, schedule: Q01DX009 (ip), vehicle: saline with Tween-80 100 % of control | dose: 50.0 mg/kg/injection, schedule: Q04DX003 (ip), vehicle: saline with Tween-80 102 % of control | [2] 94 % of control | [13] 105 % of control

O=C(Nc1ccc(F)cc1)OCCOc1ccc(Br)cc1
inactive: [10] 95 % of control | [11] 98 % of control | [12] 102 % of control

COc1ccc2oc(C(=O)O)cc2c1
inactive: [4] 101 % of control | [5] 101 % of control | [6] 101 % of control

CCN1CCCC(SC(=O)C(O)(c2ccccc2)c2ccccc2)C1 (centres undefined)
inactive: dose: 75.0 mg/kg/injection, schedule: Q01DX001 (ip), vehicle: other 94 % of control | dose: 150.0 mg/kg/injection, schedule: Q01DX001 (ip), vehicle: other 94 % of control | dose: 300.0 mg/kg/injection, schedule: Q01DX001 (ip), vehicle: other 88 % of control

Clc1nnc2c3ccccc3ccn12
inactive: [14] 96 % of control | [15] 98 % of control

O=c1cc(NCc2cccc3ccccc23)[nH]c(=O)[nH]1
inactive: dose: 37.5 mg/kg/injection, schedule: Q01DX001 (ip), vehicle: Klucel (hydroxypropylcellulose) (HPC) 97 % of control | dose: 75.0 mg/kg/injection, schedule: Q01DX001 (ip), vehicle: Klucel (hydroxypropylcellulose) (HPC) 95 % of control | dose: 150.0 mg/kg/injection, schedule: Q01DX001 (ip), vehicle: Klucel (hydroxypropylcellulose) (HPC) 93 % of control

COC(=O)c1cc(C)cc(Oc2ccccc2N)c1C
inactive: [14] 88 % of control | [15] 102 % of control | dose: 400.0 mg/kg/injection, schedule: Q01DX001 (ip), vehicle: saline 93 % of control

From PubChem BioAssay AID248 (DTP/NCI, 2004)
